Read-outs that look alike come from different tables or passages of the source.
What was measured:
SREBP-1 [1] = conditions: HepG2 cells, FIG. 5A
SREBP-1 [2] = conditions: H4IIE cells, FIG. 5A
SREBP-1 [3] = conditions: rat primary cultured liver cells, FIG. 5A
SREBP-1 [4] = conditions: HepG2 cells treated with T0901317; nuclear fraction; FIG. 5B
SREBP-1 [5] = conditions: high lipid diet 10 weeks; oltipraz 10-30 mg/kg, 3 times/week, last four weeks; p<0.01; FIG. 4
Description: (§1) Male C57BL/6 mice (average weight of 25 to 30 g) as test animals were purchased from Charles River Orient (Seoul, Korea). For at least one week before being tested, the mice were acclimatized to the surrounding environment in the animal test research center of the College of Pharmacy, Seoul National University, that is, humidity of 55±5%, temperature of 22±2° C., and controlled ventilation. The mice were repeatedly and alternately exposed to light and then placed in the dark for a time interval of 12 hours (from 7 A.M. to 7 P.M). […] The weight and state of the mice were measured once a week. Two groups of mice were respectively raised with a high lipid diet (Dyets Inc., Bethlehem) and a normal diet for 10 weeks. For the last four weeks in each case, oltipraz (10 or 30 mg/kg, 3 times/week) was administered to the mice (FIG. 1). Each group consisted of a total of 10 mice.
(§2) Total RNA (2 μg) and d(T)16 primer which were extracted from the liver of mice, and an AMV reverse transcriptase were used to obtain cDNA. The relative amounts of genes were quantified by realtime RT-PCR using a CyBr green dye. The realtime RT-PCR was Light-cycler^2.0 produced by Roche (Mannheim, Germany).

FAS = conditions: high lipid diet 10 weeks; oltipraz 10-30 mg/kg, 3 times/week, last four weeks; p<0.01; FIG. 9
Description: as §1, §2

ACC = conditions: high lipid diet 10 weeks; oltipraz 10-30 mg/kg, 3 times/week, last four weeks; p<0.01; FIG. 9
Description: as §1, §2

LXRα = conditions: high lipid diet 10 weeks; oltipraz 10-30 mg/kg, 3 times/week, last four weeks; p<0.01; FIG. 2
Description: as §1, §2

[6] = Description: as §1
LXRα/RXRα complex = LXRα/RXRα complex (Homo sapiens, UniProt Q13133); conditions: LXRα and RXRα overexpressed; nuclear fraction; FIG. 3B
Description: Whether a binding capability of LXRE is changed by oltipraz treatment was identified by gel-shift assay. LXRE double-stranded oligonucleotide of a SREBP-1c gene was labeled with a radio active isotope at 5′-terminal by using [γ-^32P]ATP and T4 polynucleotide kinase, and then the labeled probe (1 ml, >10^6 cpm) was reacted with nuclear fraction proteins in a binding buffer solution. The reaction solution was subjected to electrophoresis in 4% polyacrylamide gel and then assayed by autoradiography. […] DNA binding specificity was identified by cold probe titration and supershift assay. For the cold probe titration, 20 times greater (molar base) un-labeled oligonucleotides were reacted in advance.

[7] = within 12 hours after treatment
[8] = whole cell extract, co-treated with T0901317

Chain of LXRα/RXRα complex (Q13133 whole entry, one chain of several): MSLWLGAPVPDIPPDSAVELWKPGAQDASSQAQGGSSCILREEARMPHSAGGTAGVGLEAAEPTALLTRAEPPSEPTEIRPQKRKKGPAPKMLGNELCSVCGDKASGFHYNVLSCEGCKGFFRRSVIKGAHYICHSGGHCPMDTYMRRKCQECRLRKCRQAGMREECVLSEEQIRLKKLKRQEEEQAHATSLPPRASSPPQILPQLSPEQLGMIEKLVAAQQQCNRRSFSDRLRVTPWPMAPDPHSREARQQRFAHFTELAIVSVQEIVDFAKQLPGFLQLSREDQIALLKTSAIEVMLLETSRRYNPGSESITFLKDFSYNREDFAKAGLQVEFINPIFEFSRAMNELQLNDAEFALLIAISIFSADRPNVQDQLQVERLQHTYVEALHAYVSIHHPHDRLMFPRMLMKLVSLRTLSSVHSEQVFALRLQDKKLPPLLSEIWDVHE

binding capability of LXRα with respect to DNA (LXRE) (LXRα/RXRα complex)	Compound	expression of SREBP-1 protein after LXRα activator alone (SREBP-1 [1]; [7])	expression of SREBP-1 protein after LXRα activator alone (SREBP-1 [2]; [7])	expression of SREBP-1 protein after LXRα activator alone (SREBP-1 [3]; [7])	T0901317-increased expression of SREBP-1 protein (SREBP-1 [1]; [8])	increased nuclear localization of SREBP-1 (SREBP-1 [4])	increase in SREBP-1 expression (mRNA, relative to normal diet group) (SREBP-1 [5])	increase in FAS expression (mRNA, relative to normal diet group) (FAS)	increase in ACC expression (mRNA, relative to normal diet group) (ACC)	increase in LXRα expression (mRNA, relative to normal diet group) (LXRα)	T0901317-increased expression of SREBP-1 protein (SREBP-1 [2]; whole cell extract, co-treated with T0901317, FIGS. 6-8)	red part dyed with Oil-Red-O in liver tissue ([6]; HFD+Oltipraz versus HFD+vehicle, FIG. 11)	amount of triglyceride in liver tissues ([6]; high lipid diet 10 weeks, oltipraz administered, p<0.01, FIG. 10)	T0901317-increased expression of SREBP-1 protein (SREBP-1 [3]; [8])
–	O=S(=O)(c1ccccc1)N(CC(F)(F)F)c1ccc(C(O)(C(F)(F)F)C(F)(F)F)cc1 [compound 10901317]	remarkably increased	remarkably increased	remarkably increased	–	–	–	–	–	–	–	–	–	–
substantially decreased	Cc1c(-c2cnccn2)ssc1=S [oltipraz, 4-methyl-5-(2-pyrazinyl)-1,2-dithiol-3-thione]	–	–	–	concentration-dependently reduced	concentration-dependently reduced	inhibited	inhibited	inhibited	inhibited	concentration-dependently reduced	remarkably reduced	significantly reduced	concentration-dependently reduced

— patent publication US9370504B2, “Pharmaceutical composition containing 1,2-dithiolthione derivative for preventing or treating disease caused by overexpression of LXR-α” (SNU R&DB FOUNDATION, priority 2008, dated 2016)
